Measured values taken from ChEMBL document CHEMBL3792337, “Cardiac Glycosides from the Seeds of Thevetia peruviana” (J Nat Prod, 2016).

Assays:
[1] = Cytotoxicity against human P15 cells after 48 hrs by MTT assay; assay type: functional, cell-based; conditions: P15, 48 h
[2] = Cytotoxicity against human MGC803 cells after 48 hrs by MTT assay; assay type: functional, cell-based; conditions: MGC-803, 48 h
[3] = system: SW1990; test: Cytotoxicity against human SW1990 cells after 48 hrs by MTT assay; assay type: functional, cell-based; conditions: SW1990, 48 h
[4] = Cytotoxicity against human LO2 cells after 48 hrs by MTT assay; assay type: cell-based; conditions: L02, 48 h
[5] = system: MGC-803; test: Induction of apoptosis in human MGC803 cells after 24 hrs by annexin V-FITC/propidium iodide staining-based flow cytometry; assay type: functional, cell-based

Row | Compound | IC50 [1] [nM] | IC50 [2] [nM] | IC50 [3] [nM] | IC50 [4] [nM] | Activity [5]
1 | CO[C@H]1[C@H](O)[C@H](O[C@H]2CC[C@@]3(C)[C@H](CC[C@@H]4[C@@H]3CC[C@]3(C)[C@@H](C5=CC(=O)OC5)CC[C@]43O)C2)O[C@@H](C)[C@@H]1O [NERIIFOLIN] | 60 | 20 | 30 | > 10000 | Dose-dependent effect
2 | CO[C@H]1[C@H](O)[C@H](O[C@H]2CC[C@@]3(CO)[C@H](CC[C@@H]4[C@@H]3CC[C@]3(C)[C@@H](C5=CC(=O)OC5)CC[C@]43O)C2)O[C@@H](C)[C@@H]1O | 80 | 40 | 20 | > 10000 | Dose-dependent effect
3 | CO[C@H]1[C@H](O)[C@H](O[C@H]2CC[C@H]3[C@H](CC[C@@H]4[C@@H]3CC[C@]3(C)[C@@H](C5=CC(=O)OC5)CC[C@]43O)C2)O[C@@H](C)[C@@H]1O | 210 | 570 | 530 | > 10000 | Dose-dependent effect
4 | CO[C@H]1[C@H](O)[C@H](O[C@H]2CC[C@H]3[C@H](CC[C@@H]4[C@@H]3CC[C@]3(C)[C@@H](C5=CC(=O)OC5)CC[C@]43O)C2)O[C@@H](C)[C@@H]1O[C@@H]1O[C@H](CO[C@@H]2O[C@H](CO)[C@@H](O)[C@H](O)[C@H]2O)[C@@H](O)[C@H](O)[C@H]1O | > 10000 | 8180 | 3130 | > 10000 | 
5 | CO[C@H]1[C@@H](O)[C@H](O[C@H]2CC[C@@]3(C)[C@H](CC[C@@H]4[C@@H]3CC[C@]3(C)[C@@H](C5=CC(=O)OC5)CC[C@]43O)C2)O[C@@H](C)[C@@H]1O[C@H]1O[C@@H](CO)[C@H](O)[C@@H](O)[C@@H]1O | 1500 | > 10000 | 1690 | > 10000 | 
6 | CO[C@H]1[C@H](O)[C@H](O[C@H]2CC[C@@]3(C)[C@@H](CC[C@@H]4[C@@H]3CC[C@]3(C)[C@@H](C5=CC(=O)OC5)CC[C@]43O)C2)O[C@@H](C)[C@@H]1O [THEVEFOLIN] | 10 | 370 | 30 | > 10000 | Dose-dependent effect
7 | CO[C@H]1[C@H](O)[C@H](O[C@H]2CC[C@H]3[C@H](CC[C@@H]4[C@@H]3CC[C@]3(C)[C@@H](C5=CC(=O)OC5)CC[C@]43O)C2)O[C@@H](C)[C@@H]1O[C@H]1O[C@@H](CO)[C@H](O)[C@@H](O)[C@@H]1O | 3350 | > 10000 | 8100 | > 10000 | 
